Measurements as given in the kinase profiling compilation of Christmann-Franck et al. (2016).

Legend:
Assay in all cases: KINOMEscan competition binding
Conditions in all cases: compound 10.0 µM
ACVR1B (human) = ACVR1B (human) (UniProt P36896)
ACVR2B (human) = ACVR2B (human) (UniProt Q13705)
ACVRL1 (human) = ACVRL1 (human) (UniProt P37023)
AKT1 (human) = AKT1 (human) (UniProt P31749)
AURKA (human) = AURKA (human) (UniProt O14965)
AURKC (human) = AURKC (human) (UniProt Q9UQB9)
CDK18 (human) = CDK18 (human) (UniProt Q07002)
CDKL2 (human) = CDKL2 (human) (UniProt Q92772)
CSNK1G3 (human) = CSNK1G3 (human) (UniProt Q9Y6M4)
DAPK3 (human) = DAPK3 (human) (UniProt O43293)
DDR2 (human) = DDR2 (human) (UniProt Q16832)
EIF2AK2 (human) = EIF2AK2 (human) (UniProt P19525)
EPHA3 (human) = EPHA3 (human) (UniProt P29320)
EPHB4 (human) = EPHB4 (human) (UniProt P54760)
Chain of EPHB4 (human) (P54760 whole entry, looked up): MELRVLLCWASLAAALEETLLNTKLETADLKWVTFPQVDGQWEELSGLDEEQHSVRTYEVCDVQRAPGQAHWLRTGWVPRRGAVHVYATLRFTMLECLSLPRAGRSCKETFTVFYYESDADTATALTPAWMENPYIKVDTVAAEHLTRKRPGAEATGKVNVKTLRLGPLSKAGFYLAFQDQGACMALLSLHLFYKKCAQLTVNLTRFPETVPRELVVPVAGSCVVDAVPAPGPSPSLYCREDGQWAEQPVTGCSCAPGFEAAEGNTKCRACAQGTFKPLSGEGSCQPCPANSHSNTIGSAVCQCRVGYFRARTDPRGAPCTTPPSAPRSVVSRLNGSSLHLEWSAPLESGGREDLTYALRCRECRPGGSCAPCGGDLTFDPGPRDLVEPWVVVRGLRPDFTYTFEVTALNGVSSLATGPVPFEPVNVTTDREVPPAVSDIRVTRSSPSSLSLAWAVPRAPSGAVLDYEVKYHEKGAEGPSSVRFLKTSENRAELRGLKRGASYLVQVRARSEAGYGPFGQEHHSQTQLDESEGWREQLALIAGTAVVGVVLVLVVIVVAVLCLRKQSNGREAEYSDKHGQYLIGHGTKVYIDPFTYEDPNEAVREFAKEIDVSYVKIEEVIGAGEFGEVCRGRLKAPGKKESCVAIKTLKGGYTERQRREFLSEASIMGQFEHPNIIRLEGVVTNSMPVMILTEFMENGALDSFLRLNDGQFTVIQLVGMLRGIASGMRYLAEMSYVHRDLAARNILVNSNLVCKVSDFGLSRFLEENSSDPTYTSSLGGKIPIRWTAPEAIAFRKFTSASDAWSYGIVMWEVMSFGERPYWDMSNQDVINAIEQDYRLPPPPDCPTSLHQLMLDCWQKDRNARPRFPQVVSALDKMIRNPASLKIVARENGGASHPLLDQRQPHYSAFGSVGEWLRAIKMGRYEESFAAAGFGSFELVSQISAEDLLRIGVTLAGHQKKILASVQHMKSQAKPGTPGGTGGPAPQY

FES (human) = FES (human) (UniProt P07332)
FLT4 (human) = FLT4 (human) (UniProt P35916)
[1] = target: JAK1 JH2 pseudokinase (human) (UniProt P23458)
Chain of JAK1 JH2 pseudokinase (human) (P23458 whole entry, looked up): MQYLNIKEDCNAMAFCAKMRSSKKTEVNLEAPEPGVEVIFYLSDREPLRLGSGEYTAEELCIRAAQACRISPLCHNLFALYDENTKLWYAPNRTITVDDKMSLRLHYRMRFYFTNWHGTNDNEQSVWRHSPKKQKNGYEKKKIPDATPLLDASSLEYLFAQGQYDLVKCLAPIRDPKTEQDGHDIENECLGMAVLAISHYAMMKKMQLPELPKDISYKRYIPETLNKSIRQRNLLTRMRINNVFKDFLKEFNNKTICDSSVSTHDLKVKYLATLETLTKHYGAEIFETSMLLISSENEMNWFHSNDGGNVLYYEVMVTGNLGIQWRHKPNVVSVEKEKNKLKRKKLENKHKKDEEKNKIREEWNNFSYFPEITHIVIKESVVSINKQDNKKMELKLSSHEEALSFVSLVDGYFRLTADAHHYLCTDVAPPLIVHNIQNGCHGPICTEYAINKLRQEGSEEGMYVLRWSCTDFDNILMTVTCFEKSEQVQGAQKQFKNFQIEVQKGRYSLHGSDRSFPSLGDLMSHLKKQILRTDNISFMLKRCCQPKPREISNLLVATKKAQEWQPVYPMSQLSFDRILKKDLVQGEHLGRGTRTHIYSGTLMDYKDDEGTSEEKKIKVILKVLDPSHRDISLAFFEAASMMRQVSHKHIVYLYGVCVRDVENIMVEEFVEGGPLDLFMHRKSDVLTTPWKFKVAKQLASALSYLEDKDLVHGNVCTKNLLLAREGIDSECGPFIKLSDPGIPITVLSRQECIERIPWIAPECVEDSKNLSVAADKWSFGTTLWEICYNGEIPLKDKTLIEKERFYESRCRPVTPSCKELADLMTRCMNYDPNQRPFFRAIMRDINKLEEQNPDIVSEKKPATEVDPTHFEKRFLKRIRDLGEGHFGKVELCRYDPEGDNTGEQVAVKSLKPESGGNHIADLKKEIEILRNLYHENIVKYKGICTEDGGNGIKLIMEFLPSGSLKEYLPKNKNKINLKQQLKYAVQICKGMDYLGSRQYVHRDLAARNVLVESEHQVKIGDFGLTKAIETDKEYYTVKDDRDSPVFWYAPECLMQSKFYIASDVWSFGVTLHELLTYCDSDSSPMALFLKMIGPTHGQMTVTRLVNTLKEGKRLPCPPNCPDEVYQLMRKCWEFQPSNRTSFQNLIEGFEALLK

[2] = target: JAK3 JH1 catalytic (human) (UniProt P52333)
MAP3K10 (human) = MAP3K10 (human) (UniProt Q02779)
MAP3K11 (human) = MAP3K11 (human) (UniProt Q16584)
MAPK13 (human) = MAPK13 (human) (UniProt O15264)
Chain of MAPK13 (human) (O15264 whole entry, looked up): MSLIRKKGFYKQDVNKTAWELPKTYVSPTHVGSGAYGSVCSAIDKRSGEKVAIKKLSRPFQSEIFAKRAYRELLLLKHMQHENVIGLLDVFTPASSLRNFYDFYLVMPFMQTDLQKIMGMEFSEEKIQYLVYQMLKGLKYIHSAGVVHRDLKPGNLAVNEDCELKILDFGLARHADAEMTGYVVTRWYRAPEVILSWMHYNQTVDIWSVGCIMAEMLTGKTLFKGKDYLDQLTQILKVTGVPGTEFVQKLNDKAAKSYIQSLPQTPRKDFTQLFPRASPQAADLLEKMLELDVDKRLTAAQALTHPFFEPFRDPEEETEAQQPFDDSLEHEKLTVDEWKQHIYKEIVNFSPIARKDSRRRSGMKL

MARK2 (human) = MARK2 (human) (UniProt Q7KZI7)
MKNK1 (human) = MKNK1 (human) (UniProt Q9BUB5)
Chain of MKNK1 (human) (Q9BUB5 whole entry, looked up): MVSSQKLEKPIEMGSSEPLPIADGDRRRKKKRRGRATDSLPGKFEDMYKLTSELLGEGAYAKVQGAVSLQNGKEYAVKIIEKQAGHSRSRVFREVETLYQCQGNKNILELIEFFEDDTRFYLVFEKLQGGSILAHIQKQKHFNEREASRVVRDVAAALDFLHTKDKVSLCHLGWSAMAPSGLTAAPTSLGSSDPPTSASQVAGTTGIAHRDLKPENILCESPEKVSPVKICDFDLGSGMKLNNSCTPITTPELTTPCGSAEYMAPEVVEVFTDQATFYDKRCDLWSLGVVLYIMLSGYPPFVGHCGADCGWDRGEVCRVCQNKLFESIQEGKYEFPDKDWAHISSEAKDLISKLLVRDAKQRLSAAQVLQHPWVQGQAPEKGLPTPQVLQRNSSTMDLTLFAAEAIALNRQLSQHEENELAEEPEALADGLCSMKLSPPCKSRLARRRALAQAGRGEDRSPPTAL

MYLK4 (human) = MYLK4 (human) (UniProt Q86YV6)
MYO3A (human) = MYO3A (human) (UniProt Q8NEV4)
NLK (human) = NLK (human) (UniProt Q9UBE8)
PAK4 (human) = PAK4 (human) (UniProt O96013)
PHKG2 (human) = PHKG2 (human) (UniProt P15735)
Chain of PHKG2 (human) (P15735 whole entry, looked up): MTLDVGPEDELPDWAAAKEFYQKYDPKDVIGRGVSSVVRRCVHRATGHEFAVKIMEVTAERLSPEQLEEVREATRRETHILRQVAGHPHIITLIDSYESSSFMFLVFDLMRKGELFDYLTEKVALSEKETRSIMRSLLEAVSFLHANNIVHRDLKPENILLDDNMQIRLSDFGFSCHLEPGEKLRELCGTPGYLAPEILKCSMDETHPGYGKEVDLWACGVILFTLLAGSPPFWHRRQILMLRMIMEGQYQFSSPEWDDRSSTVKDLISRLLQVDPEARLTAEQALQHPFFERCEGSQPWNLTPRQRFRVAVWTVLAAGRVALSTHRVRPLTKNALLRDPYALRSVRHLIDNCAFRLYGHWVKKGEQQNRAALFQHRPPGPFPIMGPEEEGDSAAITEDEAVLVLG

PKMYT1 (human) = PKMYT1 (human) (UniProt Q99640)
RPS6KA1 KD1 (human) = RPS6KA1 KD1 (human) (UniProt Q15418)
RPS6KA5 KD1 (human) = RPS6KA5 KD1 (human) (UniProt O75582)
STK17A (human) = STK17A (human) (UniProt Q9UEE5)
STK3 (human) = STK3 (human) (UniProt Q13188)
STK32C (human) = STK32C (human) (UniProt Q86UX6)
SYK (human) = SYK (human) (UniProt P43405)
TXK (human) = TXK (human) (UniProt P42681)
Chain of TXK (human) (P42681 whole entry, looked up): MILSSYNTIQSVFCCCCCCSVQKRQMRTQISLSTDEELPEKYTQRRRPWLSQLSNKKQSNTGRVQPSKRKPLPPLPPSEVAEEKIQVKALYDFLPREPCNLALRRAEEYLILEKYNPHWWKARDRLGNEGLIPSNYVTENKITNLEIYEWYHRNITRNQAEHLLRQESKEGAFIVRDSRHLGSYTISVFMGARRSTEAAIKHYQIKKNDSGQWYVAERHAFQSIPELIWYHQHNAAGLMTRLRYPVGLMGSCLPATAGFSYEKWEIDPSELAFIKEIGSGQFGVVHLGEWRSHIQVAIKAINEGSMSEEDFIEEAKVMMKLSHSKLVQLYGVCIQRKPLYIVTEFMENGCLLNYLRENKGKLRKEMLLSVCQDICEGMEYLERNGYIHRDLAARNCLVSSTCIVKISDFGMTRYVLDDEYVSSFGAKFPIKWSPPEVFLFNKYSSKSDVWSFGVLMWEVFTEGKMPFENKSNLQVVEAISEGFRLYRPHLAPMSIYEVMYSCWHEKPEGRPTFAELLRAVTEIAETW

TYRO3 (human) = TYRO3 (human) (UniProt Q06418)
WEE2 (human) = WEE2 (human) (UniProt P0C1S8)
DYRK1B (human) = DYRK1B (human) (UniProt Q9Y463)
PIK3CD (human) = PIK3CD (human) (UniProt O00329)

Chain of AURKC (human) (Q9UQB9 whole entry, looked up): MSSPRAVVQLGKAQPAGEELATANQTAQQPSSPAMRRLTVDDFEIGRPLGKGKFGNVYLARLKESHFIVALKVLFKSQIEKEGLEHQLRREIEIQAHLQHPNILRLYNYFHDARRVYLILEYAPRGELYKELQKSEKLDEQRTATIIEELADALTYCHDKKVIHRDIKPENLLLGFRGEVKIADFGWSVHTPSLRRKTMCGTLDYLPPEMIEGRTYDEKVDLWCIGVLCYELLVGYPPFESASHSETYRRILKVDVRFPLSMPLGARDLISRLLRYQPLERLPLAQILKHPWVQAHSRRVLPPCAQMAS
Chain of ACVRL1 (human) (P37023 whole entry, looked up): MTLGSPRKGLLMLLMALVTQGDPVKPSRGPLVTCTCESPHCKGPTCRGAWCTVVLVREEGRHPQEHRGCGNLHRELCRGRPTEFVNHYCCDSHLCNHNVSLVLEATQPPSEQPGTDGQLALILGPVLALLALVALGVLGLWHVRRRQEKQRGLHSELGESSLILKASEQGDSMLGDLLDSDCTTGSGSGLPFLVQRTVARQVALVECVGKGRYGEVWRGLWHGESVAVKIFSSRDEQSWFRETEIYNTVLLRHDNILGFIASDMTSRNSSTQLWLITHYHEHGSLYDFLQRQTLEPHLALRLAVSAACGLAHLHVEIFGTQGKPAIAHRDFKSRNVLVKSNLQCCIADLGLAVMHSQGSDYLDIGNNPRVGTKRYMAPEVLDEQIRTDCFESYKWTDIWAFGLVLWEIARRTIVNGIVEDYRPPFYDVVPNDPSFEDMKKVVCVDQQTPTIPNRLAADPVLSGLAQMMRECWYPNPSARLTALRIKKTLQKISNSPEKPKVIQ

SMILES | kinase still bound, per cent of control (ACVR1B (human)) [%] | kinase still bound, per cent of control (ACVR2B (human)) [%] | kinase still bound, per cent of control (ACVRL1 (human)) [%] | kinase still bound, per cent of control (AKT1 (human)) [%] | kinase still bound, per cent of control (AURKA (human)) [%] | kinase still bound, per cent of control (AURKC (human)) [%] | kinase still bound, per cent of control (CDK18 (human)) [%] | kinase still bound, per cent of control (CDKL2 (human)) [%] | kinase still bound, per cent of control (DAPK3 (human)) [%] | kinase still bound, per cent of control (DDR2 (human)) [%] | kinase still bound, per cent of control (EIF2AK2 (human)) [%] | kinase still bound, per cent of control (EPHA3 (human)) [%] | kinase still bound, per cent of control (EPHB4 (human)) [%] | kinase still bound, per cent of control (FLT4 (human)) [%] | kinase still bound, per cent of control [1] [%] | kinase still bound, per cent of control (MAP3K10 (human)) [%] | kinase still bound, per cent of control (MAP3K11 (human)) [%] | kinase still bound, per cent of control (MAPK13 (human)) [%] | kinase still bound, per cent of control (MARK2 (human)) [%] | kinase still bound, per cent of control (MKNK1 (human)) [%] | other results
Cc1cc([C@@H](C)Nc2ccccc2C(=O)O)c2nc(N3CCOCC3)cc(=O)n2c1 | 93 | 100 | 89 | 100 | 100 | 93 | 100 | 91 | 100 | 83 | 99 | 79 | 96 | 95 | 100 | 96 | 100 | 87 | 90 | 92 | kinase still bound, per cent of control (CSNK1G3 (human)): 100%; kinase still bound, per cent of control (FES (human)): 94%; kinase still bound, per cent of control [2]: 94%; kinase still bound, per cent of control (MYLK4 (human)): 98%; kinase still bound, per cent of control (MYO3A (human)): 97%; kinase still bound, per cent of control (NLK (human)): 94%; kinase still bound, per cent of control (PAK4 (human)): 100%; kinase still bound, per cent of control (PHKG2 (human)): 100%; kinase still bound, per cent of control (PKMYT1 (human)): 100%; kinase still bound, per cent of control (RPS6KA1 KD1 (human)): 73%; kinase still bound, per cent of control (RPS6KA5 KD1 (human)): 81%; kinase still bound, per cent of control (STK17A (human)): 98%; kinase still bound, per cent of control (STK3 (human)): 66%; kinase still bound, per cent of control (STK32C (human)): 82%; kinase still bound, per cent of control (SYK (human)): 100%; kinase still bound, per cent of control (TXK (human)): 90%; kinase still bound, per cent of control (TYRO3 (human)): 100%; kinase still bound, per cent of control (WEE2 (human)): 100%
CCOc1cc2ncc(C#N)c(Nc3ccc(OCc4ccccn4)c(Cl)c3)c2cc1NC(=O)/C=C/CN(C)C | 100 | 100 | 100 | 98 | 87 | 95 | 96 | 100 | 91 | 100 | 100 | 85 | 91 | 100 | 100 | 88 | 85 | 99 | 86 | 29 | kinase still bound, per cent of control (DYRK1B (human)): 99%; kinase still bound, per cent of control [2]: 100%; kinase still bound, per cent of control (MYLK4 (human)): 86%; kinase still bound, per cent of control (MYO3A (human)): 98%; kinase still bound, per cent of control (NLK (human)): 95%; kinase still bound, per cent of control (PAK4 (human)): 93%; kinase still bound, per cent of control (PHKG2 (human)): 92%; kinase still bound, per cent of control (PKMYT1 (human)): 84%; kinase still bound, per cent of control (RPS6KA1 KD1 (human)): 57%; kinase still bound, per cent of control (RPS6KA5 KD1 (human)): 100%; kinase still bound, per cent of control (STK17A (human)): 37%; kinase still bound, per cent of control (STK3 (human)): 1.4%; kinase still bound, per cent of control (STK32C (human)): 100%; kinase still bound, per cent of control (SYK (human)): 65%; kinase still bound, per cent of control (TXK (human)): 86%; kinase still bound, per cent of control (TYRO3 (human)): 100%; kinase still bound, per cent of control (WEE2 (human)): 98%
O=C(O)c1ccc(Nc2ncc3c(n2)-c2ccc(Cl)cc2C(c2c(F)cccc2F)=NC3)cc1 | 94 | 100 | 64 | 100 | 0.5 | 20 | 100 | 86 | 70 | 3.6 | 100 | 15 | 11 | 18 | 80 | 67 | 84 | 100 | 93 | 100 | kinase still bound, per cent of control (CSNK1G3 (human)): 93%; kinase still bound, per cent of control (DYRK1B (human)): 91%; kinase still bound, per cent of control (FES (human)): 100%; kinase still bound, per cent of control (MYLK4 (human)): 89%; kinase still bound, per cent of control (MYO3A (human)): 80%; kinase still bound, per cent of control (NLK (human)): 82%; kinase still bound, per cent of control (PAK4 (human)): 90%; kinase still bound, per cent of control (PHKG2 (human)): 73%; kinase still bound, per cent of control (PIK3CD (human)): 88%; kinase still bound, per cent of control (PKMYT1 (human)): 65%; kinase still bound, per cent of control (RPS6KA5 KD1 (human)): 99%; kinase still bound, per cent of control (STK17A (human)): 1.9%; kinase still bound, per cent of control (STK3 (human)): 48%; kinase still bound, per cent of control (STK32C (human)): 50%; kinase still bound, per cent of control (SYK (human)): 78%; kinase still bound, per cent of control (TXK (human)): 46%; kinase still bound, per cent of control (TYRO3 (human)): 46%; kinase still bound, per cent of control (WEE2 (human)): 89%
CC[C@@H]1C(=O)N(C)c2cnc(Nc3ccc(C(=O)NC4CCN(C)CC4)cc3OC)nc2N1C1CCCC1 | 100 | 100 | 100 | 100 | 100 | 100 | 100 | 100 | 3.6 | 100 | 100 | 100 | 100 | 100 | 100 | 100 | 100 | 100 | 100 | 100 | kinase still bound, per cent of control (DYRK1B (human)): 100%; kinase still bound, per cent of control [2]: 100%; kinase still bound, per cent of control (MYLK4 (human)): 100%; kinase still bound, per cent of control (MYO3A (human)): 100%; kinase still bound, per cent of control (NLK (human)): 100%; kinase still bound, per cent of control (PAK4 (human)): 100%; kinase still bound, per cent of control (PHKG2 (human)): 20%; kinase still bound, per cent of control (PIK3CD (human)): 100%; kinase still bound, per cent of control (PKMYT1 (human)): 100%; kinase still bound, per cent of control (RPS6KA1 KD1 (human)): 100%; kinase still bound, per cent of control (RPS6KA5 KD1 (human)): 100%; kinase still bound, per cent of control (STK17A (human)): 100%; kinase still bound, per cent of control (STK32C (human)): 100%; kinase still bound, per cent of control (TXK (human)): 100%; kinase still bound, per cent of control (TYRO3 (human)): 100%; kinase still bound, per cent of control (WEE2 (human)): 100%
